From ChEMBL document CHEMBL1201862, “PubChem BioAssay data set” (2004)
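Exposure lasted 48 hours, with cells grown in 96-well plates and compounds tested at five concentrations. GI50 marks 50% less growth.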 Calls of active or inactive are those of the source. Cut-off read from the data, not from the text of the source: active = GI50 up to about 1.1 µM and inactive = higher.

What was measured:
Test in all cases: inhibition of tumour cell growth, NCI panel, 48 h
[1] = test system: Hs-578T
[2] = test system: HCC 2998
[3] = test system: UACC-62
[4] = test system: TK-10
[5] = test system: MOLT-4
[6] = test system: HT-29
[7] = test system: SNB-19
[8] = test system: SNB-75
[9] = test system: MCF7
[10] = test system: SF-539
[11] = test system: NCI-H23
[12] = test system: Malme-3M
[13] = test system: KM12
[14] = test system: RXF 393
[15] = test system: OVCAR-3
[16] = test system: DU-145
[17] = test system: OVCAR-4
[18] = test system: SF-268
[19] = test system: NCI-H522
[20] = test system: 786-0

Structure (SMILES) | GI50 [1] | GI50 [2] | GI50 [3] | GI50 [4] | GI50 [5] | GI50 [6] | GI50 [7] | GI50 [8] | GI50 [9] | GI50 [10] | GI50 [11] | GI50 [12] | GI50 [13] | GI50 [14] | GI50 [15] | GI50 [16] | GI50 [17] | GI50 [18] | GI50 [19] | GI50 [20]
O=C1/C(=C\c2cccc(Oc3ccccc3)c2)S(=O)(=O)C(c2ccccc2)N1c1cccc(Cl)c1 (centres undefined) | 65.5 µM (inactive) | > 100 µM (inactive) | 57.7 µM (inactive) | > 100 µM (inactive) | 30.1 µM (inactive) | 30.1 µM (inactive) | 68.9 µM (inactive) | > 100 µM (inactive) | 30.2 µM (inactive) | 36.1 µM (inactive) | 51.4 µM (inactive) | > 100 µM (inactive) | 58.1 µM (inactive) | 36.3 µM (inactive) | 36.2 µM (inactive) | 65.5 µM (inactive) | 98.9 µM (inactive) | 39.2 µM (inactive) | 26.8 µM (inactive) | 46.5 µM (inactive)
O=C1CC2SC(COCc3ccccc3)(CCN2Cc2ccccc2)C1 (centres undefined) | > 100 µM (inactive) | > 100 µM (inactive) | 81.1 µM (inactive) | 19.9 µM (inactive) | 30.3 µM (inactive) | 31.6 µM (inactive) | > 100 µM (inactive) | > 100 µM (inactive) | 31 µM (inactive) | > 100 µM (inactive) | 43.9 µM (inactive) | 39.3 µM (inactive) | 52.2 µM (inactive) | > 100 µM (inactive) | > 100 µM (inactive) | > 100 µM (inactive) | 61.9 µM (inactive) | > 100 µM (inactive) | 56.8 µM (inactive) | > 100 µM (inactive)
CC1CC(C#N)=C2NCCCCN2C1=O (centres undefined) | > 100 µM (inactive) | > 100 µM (inactive) | > 100 µM (inactive) | > 100 µM (inactive) | > 100 µM (inactive) | > 100 µM (inactive) | > 100 µM (inactive) | > 100 µM (inactive) | > 100 µM (inactive) | > 100 µM (inactive) | > 100 µM (inactive) | > 100 µM (inactive) | > 100 µM (inactive) | > 100 µM (inactive) | > 100 µM (inactive) | > 100 µM (inactive) | > 100 µM (inactive) | > 100 µM (inactive) | > 100 µM (inactive) | > 100 µM (inactive)
CCCC(=O)N(C)/N=N/c1ccc(C(=O)OCC)cc1 | > 100 µM (inactive) | > 100 µM (inactive) | > 100 µM (inactive) | > 100 µM (inactive) | > 100 µM (inactive) | > 100 µM (inactive) | > 100 µM (inactive) | 37.9 µM (inactive) | > 100 µM (inactive) | > 100 µM (inactive) | > 100 µM (inactive) | > 100 µM (inactive) | > 100 µM (inactive) | > 100 µM (inactive) | > 100 µM (inactive) | > 100 µM (inactive) | > 100 µM (inactive) | > 100 µM (inactive) | 52 µM (inactive) | > 100 µM (inactive)
COC12C=CC(CC1)C(C)(C)C2OS(C)(=O)=O (centres undefined) | > 100 µM (inactive) | > 100 µM (inactive) | > 100 µM (inactive) | > 100 µM (inactive) | > 100 µM (inactive) | > 100 µM (inactive) | > 100 µM (inactive) | 38.3 µM (inactive) | > 100 µM (inactive) | > 100 µM (inactive) | > 100 µM (inactive) | > 100 µM (inactive) | > 100 µM (inactive) | > 100 µM (inactive) | > 100 µM (inactive) | > 100 µM (inactive) | > 100 µM (inactive) | > 100 µM (inactive) | > 100 µM (inactive) | > 100 µM (inactive)
COC(=O)C1=C(C)NC(C)=C(C(=O)OC)C1c1ccc(NO)cc1 | 10.8 µM (inactive) | 18.7 µM (inactive) | 13 µM (inactive) | 16.5 µM (inactive) | 2.86 µM (inactive) | 7.01 µM (inactive) | 24.6 µM (inactive) | 13.2 µM (inactive) | 8.11 µM (inactive) | 15.8 µM (inactive) | 21.3 µM (inactive) | 13 µM (inactive) | 17.1 µM (inactive) | 15.8 µM (inactive) | 12.9 µM (inactive) | 19.1 µM (inactive) | 10.6 µM (inactive) | 19 µM (inactive) | 0.891 µM (active) | 15.5 µM (inactive)
CCCN1CCC(=O)N(CCC(F)(F)C(F)(F)C(F)(F)C(F)(F)C(F)(F)C(F)(F)F)C1=S | > 100 µM (inactive) | 94.6 µM (inactive) | > 100 µM (inactive) | > 100 µM (inactive) | > 100 µM (inactive) | 90.6 µM (inactive) | > 100 µM (inactive) | > 100 µM (inactive) | > 100 µM (inactive) | > 100 µM (inactive) | > 100 µM (inactive) | > 100 µM (inactive) | 71 µM (inactive) | 99.5 µM (inactive) | > 100 µM (inactive) | > 100 µM (inactive) | > 100 µM (inactive) | > 100 µM (inactive) | > 100 µM (inactive) | > 100 µM (inactive)
CC(=O)NC1C(OCC(=O)NC(C)C(=O)NC(CCC(=O)NCCCCCNc2ccc([N+](=O)[O-])c3[nH]c4ccccc4c(=O)c23)C(N)=O)C(O)C(CO)OC1(C)OCc1ccccc1 (centres undefined) | 19.5 µM (inactive) | > 50 µM (inactive) | > 50 µM (inactive) | 24 µM (inactive) | 13.3 µM (inactive) | 38.6 µM (inactive) | 33.3 µM (inactive) | 24.8 µM (inactive) | > 50 µM (inactive) | > 50 µM (inactive) | > 50 µM (inactive) | 12 µM (inactive) | > 50 µM (inactive) | 3.48 µM (inactive) | > 50 µM (inactive) | > 50 µM (inactive) | > 50 µM (inactive) | 14.5 µM (inactive) | > 50 µM (inactive) | 13 µM (inactive)
CCCNC1=Nc2ccccc2[C@@H]2N(C)c3ccccc3C(C)C[C@]12C (some centres undefined) | 19.1 µM (inactive) | 11.1 µM (inactive) | 16.1 µM (inactive) | 16 µM (inactive) | 18.1 µM (inactive) | 13.2 µM (inactive) | 18.6 µM (inactive) | 15.7 µM (inactive) | 21.3 µM (inactive) | 16.4 µM (inactive) | 18.2 µM (inactive) | 16.6 µM (inactive) | 20.3 µM (inactive) | 19.7 µM (inactive) | 19.2 µM (inactive) | 32.4 µM (inactive) | 5.7 µM (inactive) | 21.6 µM (inactive) | 18.2 µM (inactive) | 18.5 µM (inactive)
COc1cc2oc(-c3ccc(O)cc3)cc(=O)c2c(OC)c1O | 58.5 µM (inactive) | 96.8 µM (inactive) | 99.5 µM (inactive) | 51.4 µM (inactive) | > 100 µM (inactive) | > 100 µM (inactive) | 45.4 µM (inactive) | 14.5 µM (inactive) | > 100 µM (inactive) | > 100 µM (inactive) | > 100 µM (inactive) | > 100 µM (inactive) | – | 29 µM (inactive) | 80.9 µM (inactive) | 94.8 µM (inactive) | > 100 µM (inactive) | 37.8 µM (inactive) | 29.8 µM (inactive) | 36 µM (inactive)
